Measured values published in patent US9493439B1, “Proteasome inhibitors” (UNIVERSITY OF KENTUCKY RESEARCH FOUNDATION, priority 2014, dated 2016).

Assays:
[1] = target: T1, CT-L activity of purified constitutive proteasome (Homo sapiens, UniProt P28074); test: G4 analogs against the CT-L activity of purified proteasomes; type: biochemical
T1 construct: purchased R&D Systems
Protocol: Initially, purified 20S human proteasomes (CP and IP, R&D Systems) were used to assess the in vitro inhibition of proteasome catalytic activities by G4 and its analogs. In the 96-well format assays involving a 100/4 L total volume, 20S proteasomes (0.5/4 g/mL) were incubated with G4, its analogs, or reference compounds (e.g., carfilzomib) in assay buffer (20 mM Tris-HCl, 0.5 mM EDTA, 0.035% SDS) for 30 min at room temperature. Reactions were initiated by the addition of individual subunit-selective fluorogenic substrates containing the AMC (7-amino-4-methylcoumarin) group. The following substrates were used: for /31 activity, Ac-nLPnLD-AMC (100/4M); for /32 and /32i activity, Boc-LRR-AMC (200/4M); for /35 activity, Ac-WLA-AMC (20/4M); for /31i activity, Ac-PAL-AMC (100/4M); for /35i activity, Ac-ANW-AMC (100/4M). The fluorescence of liberated AMC was measured over a period of 90 min at room temperature using excitation and emission wavelengths of 360 and 460 nm on a SpectraMax M5 fluorescence plate reader (Molecular Devices).
In comparison, modifications at the ring D had little impact on the activity of G4. […] The mechanism by which these compounds enhance the CT-L activity of proteasome is unclear at this time.

[2] = test system: CT-L activity of proteasomes in RPMI 8226 cell extracts; test: CT-L activity of proteasomes in RPMI 8226 cell extracts (Suc-LLVY-AMC); type: biochemical, human
Protocol: (§1) The inhibitory effects of G4-1 on the CT-L, C-L and T-L activities were measured by assessing the hydrolysis of the fluorogenic proteasome substrates Suc-LLVY-AMC, Z-LLE-AMC and Boc-LRR-AMC, respectively. […] FIG. 5C provides a reaction progress curve with 30 min preincubation of RPMI 8226 cell extracts and G4-1. […] FIG. 5E includes the potency of G4-1 in inducing cell death in BxPC-3 cell lines with acquired resistance to bortezomib or carfilzomib. FIG. 5F provides a comparison of IC50 values of BxPC-3 sublines resistant to carfilzomib or bortezomib to its parental cell lines.
(§2) In separate experiments, cytosolic extracts of RPMI-8226 or BxPC-3 cells were prepared according to the method of Kisselev and Goldberg^25 and used in place of purified proteasomes. The fluorescence from liberated AMC of the subunit-selective probe substrates was measured as described above.

[3] = test system: C-L activity of proteasomes in RPMI 8226 cell extracts; test: C-L activity of proteasomes in RPMI 8226 cell extracts (Z-LLE-AMC); type: biochemical, human
Protocol: as §1, §2

[4] = test system: T-L activity of proteasomes in RPMI 8226 cell extracts; test: T-L activity of proteasomes in RPMI 8226 cell extracts (Boc-LRR-AMC); type: biochemical, human
Protocol: as §1, §2

[5] = test system: proteasome in RPMI 8226 cell lysates; test: Jump dilution reversibility assay; type: biochemical, human; conditions: preincubation of RPMI 8226 cell extracts for 30 min
Protocol: In further investigation of the mode of proteasome inhibition by G4-1, a dilution assay was performed following a procedure previously reported.^26 Briefly, RPMI 8226 cell lysates containing 30/4 g of total protein were incubated with G4-1 (10/4M) in 20S proteasome assay buffer for 30 min at room temperature. Lysates treated with G4-1 were subsequently transferred to a semimicrocuvette, and the baseline proteasome activity was determined by measuring the hydrolysis rate of Suc-LLVY-AMC. After establishment of the baseline, lysates treated with G4-1 were rapidly mixed with the 20S proteasome assay buffer, yielding 25-fold dilution. Following this 25-fold dilution from 10 to 0.4/4M G4-1, the hydrolysis of Suc-LLVY-AMC was again monitored over approximately 30 min.

[6] = test system: variety of cancer cell lines including LNCaP prostate cancer cells; test: Cytotoxic effects, multiple cancer cell lines; type: cell-based, human
Excerpt: (§3) Human cancer cell lines BxPC-3, H358, H-23, LNCaP, Panc-1, and RPMI 8226 were obtained from the ATCC (American Type Culture Collection) and maintained in the ATCC-recommended media, DMEM or RPMI 1640 supplemented with 10% fetal bovine serum (from GIBCO, CeliGro, and Atlanta Biologicals). BxPC-3 cells with acquired resistance to bortezomib or carfilzomib were established by growing them in the presence of stepwise in-creasing concentrations of the respective drug over a period of approximately 6 months. In order to determine the extent of drug resistance, cytotoxicity assays were performed using BxPC-3 sublines adapted to 60 nM bortezomib and 200 nM carfilzomib, respectively.
(§4) The cytotoxic effects of G4 and its analogs were determined using CellTiter Glo assay or CellTiter 96 Aqueous One Solution Cell Proliferation assay (Promega). Adherent cells (Panc-1, LNCaP, BxPC-3, bortezomib- or carfilzomib-resistant BxPC-3 sublines) growing in log phase were plated at 7000-10000 cells per well. RPMI 8226 cells growing in suspension were collected by centrifugation and plated at 10 000 cells per well. […] After 72 h, the cell viability was determined using the assay protocol recommended by the manufacturers. The resulting signals were quantified using a Veritas microplate luminometer or a SpectraMax M5 microplate spectrophotometer (Molecular Devices).

[7] = test system: BxPC-3 cell lines with acquired resistance to bortezomib or carfilzomib; test: Cytotoxic effects, BxPC-3 sublines with acquired resistance to bortezomib or carfilzomib; type: cell-based, human
Excerpt: as §3, §4

[8] = Microsomal stability assay, mouse; type: in vitro ADME; conditions: mouse liver microsomes, compared to carfilzomib and bortezomib
Protocol: (§5) The metabolic stability profiles of G4-1 and reference compounds (carfilzomib and bortezomib) were assessed by monitoring the disappearance of the test compounds in the presence of liver microsomes. A typical incubation mixture (100 sL total volume) for metabolic stability studies contained 1 sM test compounds, 0.5 mg/mL microsomal protein (pooled Balb/c mouse liver microsomes prepared in-house or BD UltraPool human liver microsomes), 100 mM Tris-HCl buffer (pH 7.4), and NADPH-generating system (5 mM isocitric acid, 0.2 unit/mL isocitric acid dehydrogenase, 5 mM magnesium chloride, 1 mM NADP^+). After preincubation at 37° C. for 5 min, the reactions were started by addition of NADP^+ and further incubated for another 0, 5, 10, 20 min. For control experiments, NADPH and/or liver microsomes were omitted from these incubations. The reactions were terminated by adding 100 sL of ice-cold acetonitrile containing phenytoin (1 sM) as internal standard and keeping on ice for 30 min, followed by centrifugation at 16 100 g for 15 min to obtain the supernatant. Aliquots (5 sL) were then analyzed for substrate disappearance using liquid chromatography-tandem mass spectrometry (Agilent 1200 HPLC instrument interfaced with Applied Biosystems Qtrap 3200) equipped with an electrospray ion source.

[9] = Microsomal stability assay, human; type: in vitro ADME; conditions: human liver microsomes, compared to carfilzomib and bortezomib
Protocol: as §5

LNCaP tumors [10] = conditions: mouse, in vivo
Protocol: (§6) Male nude mice bearing LNCaP tumors received intraperitoneal injections of either G4-1 (5 mg/kg), carfilzomib (5 mg/kg), or vehicle alone (8% DMSO in HP-β-cyclodextrin and sodium citrate) twice a week for 4 weeks (n=5 mice/group). Results are expressed as mean and standard deviation.
(§7) Six-week-old male BALB/c athymic nude mice (purchased from Orient Bio Inc., SungNam, Republic of Korea) were maintained in accordance with the National Institute of Toxicological Research of the Korea Food and Drug Administration guidelines as well as the regulations for the care and use of laboratory animals of the animal ethics committee of the Konyang University. LNCaP cells (2×10^6 cells/50 sL) were subcutaneously implanted into each animal. After the xenograft tumors had grown to a size of ‘−100 mm^3, mice (n=5/group) were dosed intraperitoneally twice a week for 4 weeks with G4-1 (5 mg/kg), carfilzomib (5 mg/kg), or vehicle only (8% DMSO in HP-Beta-CD and citrate). Tumor volumes (calculated using the following formula, (width)^2×length/2) and body weights were measured every 4 days during the experimental period. At the end of the experimental period (at day 30), mice were euthanized by cervical dislocation and tumors were isolated and weighed.

LNCaP tumors [11] = test: In vivo efficacy assay, LNCaP xenograft; conditions: 5 mg/kg intraperitoneally twice a week for 4 weeks
Protocol: as §6, §7

[12] = Phase II clinical trials; cited from earlier work

| SMILES | inhibitory potency against the CT-L activity of purified proteasomes [1] | inhibition of proteasomal CT-L activity of cell extracts [2] | inhibition of proteasomal C-L activity of cell extracts [3] | activity against the T-L activity of cell extracts [4] | inhibition of proteasomal activity after preincubation [5] | anticancer activity against cancer cell lines [6] | anticancer effect in cell line models with acquired resistance [7] | metabolic stability [8] | metabolic stability [9] | systemic toxicity in mice (LNCaP tumors [10]) | tumor growth in vivo (LNCaP tumors [11]) | median duration of response [12] [months] | overall survival [12] [months] | response rate [12] | body weight over the course of treatment (LNCaP tumors [11]) |
| --- | --- | --- | --- | --- | --- | --- | --- | --- | --- | --- | --- | --- | --- | --- | --- |
| Cc1ccc(OS(=O)(=O)c2cccc(C(F)(F)F)c2)c(-c2cc(-c3ccccc3)n(CC(=O)N[C@@H]3CCNC3)n2)c1 [G4-1] | one of the most potent inhibitors | effectively inhibit | effectively inhibit | no activity | nearly complete inhibition | good anticancer activity | not negatively impacted | excellent metabolic stability | excellent metabolic stability | without apparent systemic toxicity | effectively suppressed tumor growth | – | – | – | – |
| CC(C)C[C@H](NC(=O)[C@H](CCc1ccccc1)NC(=O)CN1CCOCC1)C(=O)N[C@@H](Cc1ccccc1)C(=O)N[C@@H](CC(C)C)C(=O)[C@@]1(C)CO1 [carfilzomib] | – | – | – | – | – | – | – | – | – | – | – | 7.8 | ~16 | under 25% | weight loss |
